Structures are written as SMILES.

In this assay the target is M. tuberculosis RnhC (Mt RnhC; Rv2228c; M. tuberculosis RNase HI) (Mycobacterium tuberculosis, UniProt P9WLH5). In words: biochemical.
Chain of M. tuberculosis RnhC (Mt RnhC; Rv2228c; M. tuberculosis RNase HI) (P9WLH5 whole entry): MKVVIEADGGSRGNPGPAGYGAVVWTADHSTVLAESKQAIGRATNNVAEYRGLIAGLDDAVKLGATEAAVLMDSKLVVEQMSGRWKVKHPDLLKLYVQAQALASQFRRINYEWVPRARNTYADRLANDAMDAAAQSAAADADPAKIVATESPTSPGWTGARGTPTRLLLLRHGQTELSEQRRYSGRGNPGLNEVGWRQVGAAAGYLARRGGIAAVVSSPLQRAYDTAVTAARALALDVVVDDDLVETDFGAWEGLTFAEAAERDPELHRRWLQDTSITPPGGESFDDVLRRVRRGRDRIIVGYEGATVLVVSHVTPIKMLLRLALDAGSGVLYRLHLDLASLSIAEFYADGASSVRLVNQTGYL
For the compound `O=S(=O)(N/N=C/c1c(O)ccc2ccccc12)c1cc(Cl)c(Cl)cc1Cl` [NSC99726], the IC50 (as a rule, the midpoint of a concentration-inhibition curve) was 45 µM.
Compound `COc1ccc(C2COc3cc(O)c(O)cc3C2)cc1` (stereo not shown) [NSC600285] came in with an IC50 of 17 µM.
For `Oc1ccc(-c2csc(Nc3ccccn3)n2)cc1O` [NSC353720], the 50% inhibitory concentration (IC50) was 12 µM.
For `CC(C)c1ccc(O)c(=O)c(O)c1` [NSC18806], the 50% inhibitory concentration (IC50) was determined as 32 µM.

The values are drawn from doi:10.1101/2021.07.14.452003v1 (biorxiv, 2021).
